The record followed here is article PMC10779787, “An Efficient Synthesis of 1-(1,3-Dioxoisoindolin-2-yl)-3-aryl Urea Analogs as Anticancer and Antioxidant Agents: An Insight into Experimental and In Silico Studies” (Molecules, 2023).

The target of the assay is EGFR (Homo sapiens, UniProt P00533). The assay is described as follows: EGFR kinase assay kit (BPS Bioscience), Kinase-Glo MAX luminescence, poly(Glu:Tyr […]) substrate. Type of assay: biochemical.
EGFR, sequence (P00533 25-1210): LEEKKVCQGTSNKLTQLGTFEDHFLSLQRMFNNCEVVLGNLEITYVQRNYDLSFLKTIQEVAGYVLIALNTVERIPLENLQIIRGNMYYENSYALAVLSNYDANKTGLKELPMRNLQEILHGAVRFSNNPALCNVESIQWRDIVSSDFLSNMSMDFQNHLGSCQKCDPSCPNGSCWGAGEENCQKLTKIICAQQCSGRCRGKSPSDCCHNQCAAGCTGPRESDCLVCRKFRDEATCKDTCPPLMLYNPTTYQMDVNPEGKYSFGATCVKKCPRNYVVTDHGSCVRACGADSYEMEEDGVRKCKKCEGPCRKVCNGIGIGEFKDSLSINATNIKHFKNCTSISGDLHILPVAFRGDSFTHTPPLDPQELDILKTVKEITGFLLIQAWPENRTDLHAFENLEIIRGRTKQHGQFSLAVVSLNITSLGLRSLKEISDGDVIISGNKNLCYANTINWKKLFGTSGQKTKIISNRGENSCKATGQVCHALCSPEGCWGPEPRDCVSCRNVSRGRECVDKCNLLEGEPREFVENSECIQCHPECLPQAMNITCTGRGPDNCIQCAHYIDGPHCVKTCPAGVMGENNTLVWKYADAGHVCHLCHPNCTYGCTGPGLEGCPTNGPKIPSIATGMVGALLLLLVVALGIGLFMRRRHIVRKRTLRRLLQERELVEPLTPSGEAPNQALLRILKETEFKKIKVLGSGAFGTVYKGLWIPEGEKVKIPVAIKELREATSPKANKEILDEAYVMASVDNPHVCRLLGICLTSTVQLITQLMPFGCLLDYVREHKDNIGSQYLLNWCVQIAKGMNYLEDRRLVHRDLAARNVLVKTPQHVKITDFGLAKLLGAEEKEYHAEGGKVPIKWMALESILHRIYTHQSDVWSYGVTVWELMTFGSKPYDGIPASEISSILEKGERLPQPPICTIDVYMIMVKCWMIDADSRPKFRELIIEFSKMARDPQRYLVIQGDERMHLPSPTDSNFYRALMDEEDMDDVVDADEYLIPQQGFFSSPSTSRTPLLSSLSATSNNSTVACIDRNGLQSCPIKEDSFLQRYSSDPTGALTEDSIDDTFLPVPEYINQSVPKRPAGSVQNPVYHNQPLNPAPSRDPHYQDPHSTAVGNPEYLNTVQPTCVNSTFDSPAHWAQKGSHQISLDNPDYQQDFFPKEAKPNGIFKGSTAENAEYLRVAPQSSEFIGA

The compound `O=C(Nc1ccc(Br)cc1)NN1C(=O)c2ccccc2C1=O` [7c, 1-(4-Bromophenyl)-3-(1,3-dioxoisoindolin-2-yl)urea] showed an IC50 of 42.9 ± 0.8 nM.
